Key:
[1] = system: Straub Tail induced by oxymorphone; assay: Oxymorphone Straub Tail antagonism (antagonist activity); format: in vivo, mouse; conditions: for ED50: sc, mouse, subcutaneous, hydrochloride salts of IX and X, oxymorphone 2 mg./kg. s.c.
Experimental: ^2 Antagonism of Straub Tail induced by oxymorphone (2 mg./kg. s.c.)

[2] = system: phenylquinone induced writhing; assay: Mouse phenylquinone writhing (analgesic activity); format: in vivo; conditions: for analgesic potency relative to pentazocine: in words, compared with pentazocine; for ED50: sc, mouse, subcutaneous, hydrochloride salts of IX and X, 50 percent reduction in number of writhings
From the text: ^1 A 50 percent reduction in number of phenylquinone induced writhing
[Siegmumd, E.A., et al., Proc. Soc. Biol. & Med 95, p. 729 (1957)].

[3] = system: analgesic effect induced by morphine; assay: Morphine antagonist rat tail flick (antagonist activity); conditions: for ED50: Rattus norvegicus, sc, read-out: ED50 Antagonist Activity, Morphine Antagonist Rat Tail Flick
[4] = Behavioral studies in the dog; format: in vivo; conditions: subcutaneous dose of 2 mg./kg.
Experimental: The normal parenteral dosage of the compounds of this invention in adult humans is about 0.25 to 16 mg. three to four times a day.

[5] = Chemical Abstracts 63, 18050-18051 (Belgian Pat. No. 644,679); cited from earlier work
[6] = Chemical Abstracts 63, 18050-18051 (Belgian Pat. No. 644,679); cited from earlier work; remark: listed apart in the source
[7] = J. Med. Chem. 12, 845-847 (1969); cited from earlier work
[8] = monkey; J. Med. Chem. 12, 845-847 (1969); cited from earlier work

| SMILES | ED50 [1] [mg/kg] | analgesic potency relative to pentazocine [2] | ED50 [2] [mg/kg] | ED50 [3] [mg/kg] | side effects in behavioral studies [4] | antagonism to meperidine (in words) [5] | analgesic activity (in words) [6] | further results |
| --- | --- | --- | --- | --- | --- | --- | --- | --- |
| Oc1ccc2c(c1)[C@]13CCN(CC4CC4)[C@H](C2)[C@@H]1CCc1ccccc13 (relative stereo) [IX, 3-Hydroxy-17-cyclopropylmethyl-5,6-benzomorphinan] | ~40 | about the same analgesic potency as pentazocine | ~4.5 | 2.3 | free of side effects | – | – | antagonist activity (in words) ([1]; test not given): little antagonist activity |
| Oc1ccc2c(c1)[C@@]13CCCC[C@H]1[C@@H](C2)N(CC1CC1)CC3 [N-cyclopropylmethyl-3-hydroxymorphinan] | – | – | – | – | – | antagonists to meperidine | analgesics | – |
| CC(C)=CCN1CCC2(C)c3cc(O)ccc3CC1C2C (centres unmarked) [Pentazocine, reference compound] | 12 | – | 3.7 | 12.2 | – | – | – | – |
| Oc1ccc2c(c1)[C@]13CCN(CC4CCC4)[C@H](C2)[C@@H]1CCc1ccccc13 (relative stereo) [X, 3-Hydroxy-17-cyclobutylmethyl-5,6-benzomorphinan] | > 40 | about the same analgesic potency as pentazocine | ~4.5 | – | free of side effects | – | – | times more active as an antagonist in the rat than pentazocine ([3]; rat, relative to pentazocine): approximately 5 times |
| NC(=O)N1CCC2CC1Cc1ccc(O)cc12 (centres unmarked) [3-carboxamido-1,2,3,4,5,6-hexahydro-2,6-methano-3-benzazocin-8-ol] | – | – | – | – | – | – | – | analgetic effect, oral (in words) [7]: orally effective analgetic; physical dependence capacity (in words) [8]: unusual freedom from physical dependence capacity in the monkey |
| Oc1ccc2c(c1)[C@@]13CCCC[C@H]1[C@@H](C2)N(CC1CCC1)CC3 (stereo in doubt) [N-cyclobutylmethyl-3-hydroxymorphinan] | – | – | – | – | – | antagonists to meperidine | analgesics | – |

From patent US3931188A, “3-Hydroxy-5,6-benzomorphinan derivatives” (Bristol-Myers Company, priority 1974, dated 1976)
